# Tests used:
# [1] = target: T1, FLT3-D835Y (Homo sapiens, UniProt P36888, D835Y); assay: AlphaScreen kinase assay with recombinant enzyme, FLT3-D835Y; format: biochemical; details: 8pt, GMean
# T1 construct: purchased Invitrogen PV3967
# T1 sequence (P36888 27-993 D835Y): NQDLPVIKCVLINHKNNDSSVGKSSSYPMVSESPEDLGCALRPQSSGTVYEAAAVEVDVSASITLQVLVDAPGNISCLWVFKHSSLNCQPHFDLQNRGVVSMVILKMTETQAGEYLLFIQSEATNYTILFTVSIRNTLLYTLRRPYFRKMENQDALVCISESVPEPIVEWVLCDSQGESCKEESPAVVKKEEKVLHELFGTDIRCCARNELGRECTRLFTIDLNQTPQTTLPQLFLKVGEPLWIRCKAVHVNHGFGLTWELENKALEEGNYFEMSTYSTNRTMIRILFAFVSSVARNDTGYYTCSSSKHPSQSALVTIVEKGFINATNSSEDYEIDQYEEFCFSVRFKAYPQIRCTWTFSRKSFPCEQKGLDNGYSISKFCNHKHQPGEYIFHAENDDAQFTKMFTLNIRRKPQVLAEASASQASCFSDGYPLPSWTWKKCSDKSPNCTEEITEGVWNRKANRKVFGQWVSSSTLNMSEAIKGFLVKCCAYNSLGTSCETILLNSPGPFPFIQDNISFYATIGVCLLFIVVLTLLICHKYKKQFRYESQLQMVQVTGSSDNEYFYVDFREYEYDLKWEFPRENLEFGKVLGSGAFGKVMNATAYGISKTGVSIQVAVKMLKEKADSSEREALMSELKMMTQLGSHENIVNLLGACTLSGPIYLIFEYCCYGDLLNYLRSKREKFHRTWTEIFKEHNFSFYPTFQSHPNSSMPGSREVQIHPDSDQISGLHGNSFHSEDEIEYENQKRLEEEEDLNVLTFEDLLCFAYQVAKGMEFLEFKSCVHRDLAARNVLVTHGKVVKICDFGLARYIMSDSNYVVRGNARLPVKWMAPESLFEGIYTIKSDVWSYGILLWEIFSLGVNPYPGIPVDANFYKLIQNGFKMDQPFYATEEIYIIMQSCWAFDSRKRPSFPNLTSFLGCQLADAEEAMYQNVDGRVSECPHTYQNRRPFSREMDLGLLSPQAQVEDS
# Description: (§1) In order to determine the effect of compounds on FLT3 catalytic activity, kinase assays using recombinant enzymes and AlphaScreen® technology have been established. The catalytic activity of c-kit activity was also measured to determine selectivity of the compounds. When the kinases are catalytically active, they phosphorylate a biotinylated peptide substrate on tyrosine residues. Using AlphaScreen® technology, the ability of the compounds to affect the catalytic activity of the kinases can be measured quantitatively. The peptide substrate is immobilized by the AlphaScreen® Streptavidin Donor beads and, upon phosphorylation by a tyrosine kinase, can bind to AlphaScreen® Anti-Phosphotyrosine (PY20) Acceptor beads. Upon excitation of these beads with laser light at 680 nm, singlet oxygen is produced. This singlet oxygen is rapidly quenched, unless the AlphaScreen® Anti-Phosphotyrosine (PY20) Acceptor beads are in close proximity, in which case a proximity signal can be measured at 580 nm. In the presence of catalytic activity, there is a very strong proximity signal. Selective kinase inhibitors affect a decrease in this proximity signal through a decrease in tyrosine phosphorylation of the peptide substrate.
# (§2) The assay was performed as summarized below.
# (§3) Poly (Glu4-Tyr) Peptide, biotin conjugate [Biotin-GG(EEEEY)10EE] (SEQ ID NO: 4)
# (§4) Final concentration=30 nM
# (§5) Final concentration for IC50 determination=10 μM (FLT3-D835Y or FLT3-ITD) or 100 μM (c-KIT)
# (§6) AlphaScreen® Phosphotyrosine (PY20) Assay Kit
# (§7) Final concentration=10 μg/mL
# (§8) Dilute compounds in DMSO to 20× final concentration.
# (§9) Add 1 μl of compound to each well of 384 well reaction plate (Perkin Elmer #6005359).
# (§10) Mix enzyme and Poly (Glu4-Tyr) Peptide substrate at 1.33× final concentration in assay buffer.
# (§11) Mix ATP at 5× final concentration in assay buffer.
# (§12) Add 15 μL enzyme/substrate mixture to the reaction plate.
# (§13) Add 4 μL of ATP to the reaction plate.
# (§14) Mix Streptavidin Donor beads at 6× final concentration in Stop/Detection buffer.
# (§15) Add 5 μL Streptavidin Donor beads to the reaction plate. Centrifuge 1 minute, shake to mix, and incubate at room temperature for 20 minutes.
# (§16) Mix Anti-Phosphotyrosine (PY20) Acceptor beads at 6× final concentration in Stop/Detection buffer.
# (§17) Add 5 μL Anti-Phosphotyrosine (PY20) beads to the reaction plate.
# (§18) Centrifuge 1 minute, shake to mix, and incubate at room temperature for 60 minutes.
# (§19) Read plate on Wallac EnVision™ 2103 Multilabel Reader.
# [2] = target: T2, FLT3-ITD (Homo sapiens, UniProt P36888); assay: AlphaScreen kinase assay with recombinant enzyme, FLT3-ITD; format: biochemical; details: 8pt; read-out: FLT3_ITD 8pt: IC50
# T2 sequence (P36888 1-993): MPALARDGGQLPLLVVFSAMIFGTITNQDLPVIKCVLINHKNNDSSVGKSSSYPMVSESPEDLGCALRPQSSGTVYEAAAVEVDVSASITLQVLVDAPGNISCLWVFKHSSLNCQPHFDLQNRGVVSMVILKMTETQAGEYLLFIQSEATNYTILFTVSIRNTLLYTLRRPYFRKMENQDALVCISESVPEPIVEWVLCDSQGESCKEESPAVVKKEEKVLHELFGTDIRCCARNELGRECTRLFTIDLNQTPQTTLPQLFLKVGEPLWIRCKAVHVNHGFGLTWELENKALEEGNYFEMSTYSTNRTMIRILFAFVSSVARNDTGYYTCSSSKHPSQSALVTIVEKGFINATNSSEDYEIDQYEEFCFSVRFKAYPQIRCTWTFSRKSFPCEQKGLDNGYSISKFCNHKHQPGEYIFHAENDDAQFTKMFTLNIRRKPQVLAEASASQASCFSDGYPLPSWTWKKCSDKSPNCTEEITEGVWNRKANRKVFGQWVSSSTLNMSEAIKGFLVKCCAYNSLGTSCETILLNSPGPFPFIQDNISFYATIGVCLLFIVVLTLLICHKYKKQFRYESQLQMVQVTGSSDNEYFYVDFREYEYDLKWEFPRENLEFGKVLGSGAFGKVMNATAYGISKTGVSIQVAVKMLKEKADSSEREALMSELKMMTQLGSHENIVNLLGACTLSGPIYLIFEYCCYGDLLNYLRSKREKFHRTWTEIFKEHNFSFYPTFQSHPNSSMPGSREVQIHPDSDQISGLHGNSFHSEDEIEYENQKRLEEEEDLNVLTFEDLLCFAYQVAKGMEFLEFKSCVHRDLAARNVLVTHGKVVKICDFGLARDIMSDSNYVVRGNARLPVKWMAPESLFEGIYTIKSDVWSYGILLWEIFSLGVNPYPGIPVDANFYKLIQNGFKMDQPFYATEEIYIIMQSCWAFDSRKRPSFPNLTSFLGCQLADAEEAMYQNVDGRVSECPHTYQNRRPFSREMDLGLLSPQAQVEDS
# Description: as §1, §2, §3, §4, §5, §6, §7, §8, §9, §10, §11, §12, §13, §14, §15, §16, §17, §18, §19
# [3] = target: T3, c-KIT (Homo sapiens, UniProt P10721); assay: AlphaScreen kinase assay with recombinant enzyme, c-KIT; format: biochemical; details: 100ATP, 8pt, GMean
# T3 construct: purchased Millipore 14-559K
# T3 sequence (P10721 26-976): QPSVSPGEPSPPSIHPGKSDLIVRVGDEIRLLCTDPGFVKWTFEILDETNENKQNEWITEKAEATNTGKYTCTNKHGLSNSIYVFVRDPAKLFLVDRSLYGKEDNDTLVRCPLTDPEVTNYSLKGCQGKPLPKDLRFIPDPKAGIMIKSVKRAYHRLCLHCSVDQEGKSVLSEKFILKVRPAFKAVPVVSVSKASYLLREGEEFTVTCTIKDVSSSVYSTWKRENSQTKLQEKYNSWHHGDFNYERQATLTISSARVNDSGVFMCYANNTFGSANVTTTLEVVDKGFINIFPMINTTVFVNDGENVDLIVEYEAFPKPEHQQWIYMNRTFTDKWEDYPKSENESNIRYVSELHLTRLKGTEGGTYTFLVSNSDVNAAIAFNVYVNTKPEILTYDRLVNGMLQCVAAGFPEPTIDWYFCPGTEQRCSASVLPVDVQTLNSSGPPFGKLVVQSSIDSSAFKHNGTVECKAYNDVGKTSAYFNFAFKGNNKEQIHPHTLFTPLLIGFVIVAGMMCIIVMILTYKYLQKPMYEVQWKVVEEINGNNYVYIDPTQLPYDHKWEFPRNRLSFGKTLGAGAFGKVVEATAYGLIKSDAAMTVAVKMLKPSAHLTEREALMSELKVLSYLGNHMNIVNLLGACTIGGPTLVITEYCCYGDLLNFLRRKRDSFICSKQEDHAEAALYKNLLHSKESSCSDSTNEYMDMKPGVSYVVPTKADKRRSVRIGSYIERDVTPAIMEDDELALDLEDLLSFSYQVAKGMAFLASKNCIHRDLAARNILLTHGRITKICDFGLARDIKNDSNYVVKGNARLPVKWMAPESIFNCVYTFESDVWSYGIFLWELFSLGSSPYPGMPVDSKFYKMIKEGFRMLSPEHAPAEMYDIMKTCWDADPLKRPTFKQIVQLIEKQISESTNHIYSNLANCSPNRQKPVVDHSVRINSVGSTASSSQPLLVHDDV
# Description: as §1, §2, §3, §4, §5, §6, §7, §8, §9, §10, §11, §12, §13, §14, §15, §16, §17, §18, §19
# [4] = tested on: MOLM-14 D835Y cells, FLT3 ITD and FLT3 D835Y; assay: Cell proliferation assay (CellTiter-Glo), MOLM-14 D835Y; format: cell-based; details: Homo sapiens, 72 h, 3d-Growth, GMean
# Description: The FLT3 inhibitors may be assessed using the MOLM-14, Acute Myeloid Leukemia cell line that endogenously expresses FLT3 ITD or derivatives of the human FLT3 AML cell line which acquired the D835Y (activation loop) of F691L (gatekeeper) mutation after selection in escalating doses of the FLT3 Inhibitor AC220. FLT3 inhibitors may also be assessed using cells that are engineered to express mutant FLT3. For engineered cells, murine Ba/F3 cells were transfected with full-length FLT3 ITD/D835Y mutations. The parental BA/F3 cells are dependent upon Interleukin-3 (IL-3) for survival, and introduction of the FLT3 constructs rendered these cells dependent upon FLT3 kinase activity when cultured in the absences of IL-3. Engineered BA/F3 cell growth assays can be performed in either the […] of IL-3, to assess the compound inhibition of FLT3 or to detect the presence of off-target activity, respectively. Inhibitors of FLT3 kinase activity reduce or eliminate the FLT3 oncogenic signaling, resulting in reduced cell proliferation. This inhibition is measured as a function of compound concentration to asses IC50 values.
# Cell lines used in proliferation assays are as follows in Table 3:
# Cells were seeded at 1×10^4 cells per well of a 96 well cell culture plate in 50 μl of cell culture medium. Compounds were dissolved in DMSO, typically at a concentration of 0.5 mM and were serially diluted 1:3 for a total of eight points and added to the cells to final concentrations of […], 0.0041, 0.0014 and 0.00046 μM in 100 μl cell culture medium (final concentration 0.2% DMSO). […] The cells were incubated at 37° C., 5% CO2 for three days. CellTiter-Glo Buffer (Promega Cell Viability Assay catalog #G7573) and substrate were equilibrated to room temperature, and enzyme/substrate Recombinant Firefly Luciferase/Beetle Luciferin was reconstituted. The cell plates were equilibrated to room temperature for 30 minutes, then lysed by addition of an equivalent volume of the Celltiter-Glo Reagent. The plate was mixed for 10 minutes on a plate shaker to lyse the cells. The plates were read on a Tecan M1000 using Luminescence protocol modified to read 0.1 s per well. The luminescence reading assesses the ATP content, which correlates directly with cell number such that the reading as a function of compound concentration was used to determine the IC50 value.
SMILES,IC50 [1] [µM],IC50 [2] [µM],IC50 [3] [µM],IC50 [4] [µM]
"NC1CCC(NC(=O)c2n[nH]c3ccc(-c4cnc5[nH]c(-c6ccccc6)cc5c4)cc23)CC1 (centres unmarked) [Compound P-0019, N-(4-aminocyclohexyl)-5-(2-phenyl-1H-pyrrolo[2,3-b]pyridin-5-yl)-1H-indazole-3-carboxamide]",0.0001 to 10,0.0001 to 10,0.0001 to 10,
"O=C(O)C1CCN(C(=O)c2cccc(-c3cnc4[nH]c(-c5ccccc5)cc4c3)n2)CC1 [Compound P-0024, 1-[6-(2-phenyl-1H-pyrrolo[2,3-b]pyridin-5-yl)pyridine-2-carbonyl]piperidine-4-carboxylic acid]",0.0001 to 10,0.0001 to 10,10 to 50,
"O=C(c1ccc(-c2cnc3[nH]c(-c4ccccc4)cc3c2)s1)N1CCC(n2ccnc2)C1 (centres unmarked) [Compound P-0110, (3-imidazol-1-ylpyrrolidin-1-yl)-[5-(2-phenyl-1H-pyrrolo[2,3-b]pyridin-5-yl)-2-thienyl]methanone]",,,10 to 50,
"CC(C)(C#N)NC(=O)c1cccc(-c2cnc3[nH]c(-c4ccnc(F)c4)cc3c2)n1 [Compound P-0209, N-(1-cyano-1-methyl-ethyl)-6-[2-(2-fluoro-4-pyridyl)-1H-pyrrolo[2,3-b]pyridin-5-yl]pyridine-2-carboxamide]",0.0001 to 10,0.0001 to 10,50 to 100,
"Cc1cc(-c2cc3cc(-c4cccc(C(=O)NC(C)(C)C#N)n4)cnc3[nH]2)ccn1 [Compound P-0210, N-(1-cyano-1-methyl-ethyl)-6-[2-(2-methyl-4-pyridyl)-1H-pyrrolo[2,3-b]pyridin-5-yl]pyridine-2-carboxamide]",0.0001 to 10,0.0001 to 10,50 to 100,

# Further lines, results first:
IC50 [1] [µM],IC50 [2] [µM],IC50 [3] [µM],IC50 [4] [µM],SMILES
0.0001 to 10,0.0001 to 10,0.0001 to 10,,"CN[C@H]1CCN(C(=O)c2cccc(-c3cnc4[nH]c(-c5ccccc5)cc4c3)n2)C1 [Compound P-0051, [(3S)-3-(methylamino)pyrrolidin-1-yl]-[6-(2-phenyl-1H-pyrrolo[2,3-b]pyridin-5-yl)-2-pyridyl]methanone]"
0.0001 to 10,,10 to 50,,"Cn1cc(NC(=O)c2cccc(-c3cnc4[nH]c(-c5ccccc5)cc4c3)n2)cn1 [Compound P-0065, N-(1-methylpyrazol-4-yl)-6-(2-phenyl-1H-pyrrolo[2,3-b]pyridin-5-yl)pyridine-2-carboxamide]"
0.0001 to 10,0.0001 to 10,50 to 100,,"Cn1ccc(NC(=O)c2cccc(-c3cnc4[nH]c(-c5ccccc5)cc4c3)n2)n1 [Compound P-0066, N-(1-methylpyrazol-3-yl)-6-(2-phenyl-1H-pyrrolo[2,3-b]pyridin-5-yl)pyridine-2-carboxamide]"
0.0001 to 10,,,0.0001 to 10,"COC(=O)C1(NC(=O)c2cccc(-c3cnc4[nH]c(-c5ccccc5)cc4c3)n2)CC1 [Compound P-0129, methyl 1-[[6-(2-phenyl-1H-pyrrolo[2,3-b]pyridin-5-yl)pyridine-2-carbonyl]amino]cyclopropanecarboxylate]"
